Experimental data as given in ChEMBL document CHEMBL4354781, “Drug-resistance in Mycobacterium tuberculosis: where we stand” (2019).
In brackets after ≈: the same amount, converted by molar mass.

Tests used:
Type in all cases: functional
[1] = system: Mycobacterium tuberculosis; assay: Antitubercular activity against Mycobacterium tuberculosis H37Rv ATCC 25618
[2] = system: Mycobacterium tuberculosis; assay: Antitubercular activity against Mycobacterium tuberculosis H37Rv ATCC 35838
[3] = system: Mycobacterium tuberculosis; assay: Antitubercular activity against Mycobacterium tuberculosis H37Rv ATCC 35822
[4] = system: Mycobacterium tuberculosis; assay: Antitubercular activity against Mycobacterium tuberculosis H37Rv ATCC 35837
[5] = system: Mycobacterium tuberculosis; assay: Antitubercular activity against Mycobacterium tuberculosis H37Rv ATCC 35820
[6] = system: Mycobacterium tuberculosis; assay: Antitubercular activity against Mycobacterium tuberculosis Kurono ATCC 35812
[7] = system: Mycobacterium tuberculosis; assay: Antitubercular activity against Mycobacterium tuberculosis XDR
[8] = system: Mycobacterium tuberculosis; assay: Antitubercular activity against Mycobacterium tuberculosis by radiometric analysis

C[C@]1(COc2ccc(N3CCC(Oc4ccc(OC(F)(F)F)cc4)CC3)cc2)Cn2cc([N+](=O)[O-])nc2O1 [DELAMANID]
MIC [1]: 0.006 to 0.024 µg/mL (≈ 0.0112 to 0.0449 µM) | MIC [2]: 0.006 to 0.024 µg/mL (≈ 0.0112 to 0.0449 µM) | MIC [3]: 0.006 to 0.024 µg/mL (≈ 0.0112 to 0.0449 µM) | MIC [4]: 0.006 to 0.024 µg/mL (≈ 0.0112 to 0.0449 µM) | MIC [5]: 0.006 to 0.024 µg/mL (≈ 0.0112 to 0.0449 µM) | MIC [6]: 0.006 to 0.024 µg/mL (≈ 0.0112 to 0.0449 µM)

CC(=O)NC[C@H]1CN(c2ccc(N3CCOCC3)c(F)c2)C(=O)O1 [LINEZOLID]
MIC [7]: 0.125 to 0.5 µg/mL (≈ 0.371 to 1.48 µM)

O=[N+]([O-])c1cn2c(n1)OC[C@@H](OCc1ccc(OC(F)(F)F)cc1)C2 [PRETOMANID]
MIC [8]: 0.015 to 0.25 µg/mL (≈ 0.0418 to 0.696 µM)
